# Patent US20220054513A1, “COMBINATION COMPOSITIONS COMPRISING A BETA-LACTAMASE INHIBITOR” (VenatoRx Pharmaceuticals, Inc., priority 2018, published 2022)
# System: Acinetobacter baumannii-calcoaceticus species complex clinical isolates
# Test: MIC of triple combinations (Compound 1, sulbactam, meropenem or cefepime), 141 clinical isolates
# Type: cell-based
# Settings: Cmpd 1 at 4 μg/mL in combinations
# Text: For a more comprehensive assessment of the ability of test compounds to potentiate sulbactam in triple combinations with β-lactams additional MIC assays were utilized.
smiles,measurement,setting,value
C[C@@H](O)[C@H]1C(=O)N2C(C(=O)O)=C(S[C@@H]3CN[C@H](C(=O)N(C)C)C3)[C@H](C)[C@H]12 [MEM],MIC,strain 993131,64 µg/mL
same,MIC,strain 994180,2 µg/mL
same,MIC,strain 995771,256 µg/mL
same,MIC,strain 996612,32 µg/mL
same,MIC,strain 996869,>256 µg/mL
same,MIC,strain 997574,256 µg/mL
same,MIC,strain 998107,64 µg/mL
same,MIC,strain 998532,256 µg/mL
same,MIC,strain 998898,32 µg/mL
same,MIC,strain 998907,16 µg/mL
same,MIC,strain 999306,2 µg/mL
same,MIC,strain 1001007,256 µg/mL
same,MIC,strain 1001611,32 µg/mL
same,MIC,strain 1002208,64 µg/mL
same,MIC,strain 1002952,>256 µg/mL
same,MIC,strain 1002960,>256 µg/mL
same,MIC,strain 1003557,256 µg/mL
same,MIC,strain 1003787,>256 µg/mL
same,MIC,strain 1008508,>256 µg/mL
same,MIC,strain 1008510,256 µg/mL
same,MIC,strain 1010245,64 µg/mL
same,MIC,strain 1010331,64 µg/mL
same,MIC,strain 1011959,64 µg/mL
same,MIC,strain 1013022,256 µg/mL
same,MIC,strain 1013035,256 µg/mL
same,MIC,strain 1013055,32 µg/mL
same,MIC,strain 1013322,64 µg/mL
same,MIC,strain 1014143,8 µg/mL
same,MIC,strain 1014646,64 µg/mL
same,MIC,strain 1014815,256 µg/mL
same,MIC,strain 1014866,64 µg/mL
same,MIC,strain 1014870,256 µg/mL
same,MIC,strain 1014878,64 µg/mL
same,MIC,strain 1018109,0.25 µg/mL
same,MIC,strain 1018801,256 µg/mL
same,MIC,strain 1018802,256 µg/mL
same,MIC,strain 1018807,64 µg/mL
same,MIC,strain 1018851,256 µg/mL
same,MIC,strain 1019086,256 µg/mL
same,MIC,strain 1023031,>256 µg/mL
same,MIC,strain 1023034,64 µg/mL
same,MIC,strain 1023074,32 µg/mL
same,MIC,strain 1023207,32 µg/mL
same,MIC,strain 1023329,64 µg/mL
same,MIC,strain 1024119,4 µg/mL
same,MIC,strain 1026990,256 µg/mL
same,MIC,strain 1026992,32 µg/mL
same,MIC,strain 1027234,64 µg/mL
same,MIC,strain 1027590,256 µg/mL
same,MIC,strain 1027603,64 µg/mL
same,MIC,strain 1027748,32 µg/mL
same,MIC,strain 1028193,>256 µg/mL
same,MIC,strain 1029770,>256 µg/mL
same,MIC,strain 1029913,32 µg/mL
same,MIC,strain 1030427,256 µg/mL
same,MIC,strain 1031167,256 µg/mL
same,MIC,strain 1031191,64 µg/mL
same,MIC,strain 1031211,64 µg/mL
same,MIC,strain 1031238,256 µg/mL
same,MIC,strain 1032669,64 µg/mL
same,MIC,strain 1032761,256 µg/mL
same,MIC,strain 1033340,256 µg/mL
same,MIC,strain 1033979,256 µg/mL
same,MIC,strain 1034048,256 µg/mL
same,MIC,strain 1034912,64 µg/mL
same,MIC,strain 1034913,64 µg/mL
same,MIC,strain 1034916,64 µg/mL
same,MIC,strain 1034925,64 µg/mL
same,MIC,strain 1034962,64 µg/mL
same,MIC,strain 1035144,256 µg/mL
same,MIC,strain 1035788,64 µg/mL
same,MIC,strain 1035794,32 µg/mL
same,MIC,strain 1035808,16 µg/mL
same,MIC,strain 1035825,64 µg/mL
same,MIC,strain 1036045,64 µg/mL
same,MIC,strain 1036068,64 µg/mL
same,MIC,strain 1036734,64 µg/mL
same,MIC,strain 1036768,8 µg/mL
same,MIC,strain 1036781,>256 µg/mL
same,MIC,strain 1036859,64 µg/mL
same,MIC,strain 1036882,256 µg/mL
same,MIC,strain 1036921,1 µg/mL
same,MIC,strain 1037193,>256 µg/mL
same,MIC,strain 1037211,2 µg/mL
same,MIC,strain 1037251,64 µg/mL
same,MIC,strain 1037256,64 µg/mL
same,MIC,strain 1037479,256 µg/mL
same,MIC,strain 1037593,256 µg/mL
same,MIC,strain 1037618,1 µg/mL
same,MIC,strain 1037714,256 µg/mL
same,MIC,strain 1037731,0.5 µg/mL
same,MIC,strain 1037732,256 µg/mL
same,MIC,strain 1037738,>256 µg/mL
same,MIC,strain 1037747,256 µg/mL
same,MIC,strain 1038418,0.25 µg/mL
same,MIC,strain 1038439,0.25 µg/mL
same,MIC,strain 1039502,64 µg/mL
same,MIC,strain 1039518,64 µg/mL
same,MIC,strain 1040900,64 µg/mL
same,MIC,strain 1040901,64 µg/mL
same,MIC,strain 1042182,64 µg/mL
